Source: patent publication US20100226919A1, “Antitumoral Treatments” (Pharma Mar, S.A., priority 2007, published 2010)
Read-outs that look alike come from different tables or passages of the source.

Tests used:
H322 cells [1] = details: only two of the nine cell lines sensitive; cited from earlier work
H3255 cells [2] = details: only two of the nine cell lines sensitive; cited from earlier work
H322 cells [3] = details: from Ling et al., Mol Pharmacol 2007; cited from earlier work
H1299 cells = details: read-out: IC50 (50% cell growth inhibition); H1299, 72 h exposure; range given for two cell lines of intermediate sensitivity
From the text: (§1) Nine human NSCLC cell lines that were characterized for EGFR, Ras, and p53 gene expression and sensitivity to a variety of antitumor agents (paclitaxel, premetrexed, erlotinib, etc.) were used as models to examine the cell sensitivity to PM02734 trifluoroacetate salt. These NSCLC cell lines are the following: H322, A549, H661, H1299, H1975 with L858R and T790M EGFR double mutation, H358, H460, H1650 with L858R EGFR mutation, and H3255 with […]. […] H3255 cell line is a gift from Dr. Pasi A. Jänne (Dana-Farber Cancer Institute, Boston Mass.).
(§2) Exponentially growing cells (1×10^5/ml) were plated in 96-well plates and allowed to attach overnight. Cells were exposed to various concentrations of PM02734 trifluoroacetate salt at 37° C. for 72 hours.
(§3) H322, A549, H1299 and H460 cells were plated in 96-well plates as described above. […] Enzyme Regul. […] The synergistic effects (CI index) were analyzed by software CalcuSyn.

A549 cells = details: read-out: IC50 (50% cell growth inhibition); A549, 72 h exposure; range given for four highly sensitive cell lines
From the text: as §1, §2, §3

H460 cells = details: read-out: IC50 (50% cell growth inhibition); H460, 72 h exposure; resistant cell lines
From the text: as §1, §2, §3

H322 cells [4] = details: read-out: IC50 (50% cell growth inhibition); H322, 72 h exposure; range given for four highly sensitive cell lines
From the text: as §1, §2, §3

[5] = test system: human A549 NSCLC cell line; assay: A549 subcutaneous xenograft model in nude mice; type: in vivo; details: PM02734 0.1 mg/kg i.v. 3 times per week for 2 weeks; erlotinib 50 mg/kg p.o. 5 times per week for 2 weeks; p<0.001
Description: PM02734 was administered in its trifluoroacetate salt using water for injection as vehicle. Erlotinib was administered using sterile water as vehicle.
Nude mice (NUR-NU-F-M, female, 5-6 weeks old, Taconic Farm, Germantown N.Y.) were subcutaneously implanted with the human A549 NSCLC cell line (4.5×10^6 cells/mouse). Seven days later, mice were randomly divided into 4 groups with 5 mice per group. One group of mice received the combination treatment (PM02734: 0.1 mg/kg×3 times per week (on days 1, 3, and 5) for 2 weeks, i.v.; erlotinib: 50 mg/kg×5 times per week (on days 1, 2, 3, 4, and 5) for 2 weeks, p.o.). In this group erlotinib was given first followed two hours later by the administration of PM02734. The other groups were treated with PM02734 alone (0.1 mg/kg×3 times per week (on days 1, 3, and 5) for 2 weeks, i.v.), erlotinib alone (50 mg/kg×5 times per week (on days 1, 2, 3, 4, and 5) for 2 weeks, p.o.) or without treatment. Tumor size was measured twice a week. Tumor volume was calculated using the following equation: Tumor volume (mm^3)=0.5×longer diameter×(shorter diameter)^2 in millimeter. The experiment was terminated when ≧50% mice had tumors larger than 15 mm (i.e., the longer diameter>15 mm).

H358 cells = details: read-out: IC50 (50% cell growth inhibition); H358, 72 h exposure; resistant cell lines
From the text: as §1, §2

H661 cells = details: read-out: IC50 (50% cell growth inhibition); H661, 72 h exposure; range given for four highly sensitive cell lines
From the text: as §1, §2

H1650 cells = details: read-out: IC50 (50% cell growth inhibition); H1650 (EGFR mutant), 72 h exposure; resistant cell lines
From the text: as §1, §2

H3255 cells [6] = details: read-out: IC50 (50% cell growth inhibition); H3255 (EGFR mutant), 72 h exposure; range given for four highly sensitive cell lines
From the text: as §1, §2

H1975 cells = details: read-out: IC50 (50% cell growth inhibition); H1975 (double EGFR mutant), 72 h exposure; range given for two cell lines of intermediate sensitivity
From the text: as §1, §2

H322 cells [7] = assay: Cell-cycle progression and apoptosis by propidium iodide FACS analysis; type: cell-based, human; details: H322, 0.5 μM, 0, 3, 6 and 24 hours
Description: H322 cells were plated in a 6-well plate and incubated with RPMI1640 medium with 10% fetal bovine serum at 37° C. overnight. […] At the indicated time point, cells were harvested by trypsinization and fixed with cold 75% ethanol at 4° C. overnight. Cells were incubated with 1 μg/ml of propidium iodide and 5 μg/ml of RNase I at room temperature for 3 hours. The cell-cycle distribution and apoptotic cells (Sub-G0/G1) were measured by FACS analysis (BD Biosciences, San Joes, Calif.).

colon (HT-29) = details: cited from earlier work
[8] = test system: non-small cell lung (A549); details: cited from earlier work
mouse leukemia (P388) = details: cited from earlier work

Question: Which “cell sensitivity to erlotinib” value (H322 cells [1]) does the source give for `C#Cc1cccc(Nc2ncnc3cc(OCCOC)c(OCCOC)cc23)c1` [erlotinib, Erlotinib] here?
Answer: The value was “sensitive”.

Question: What about the “cell sensitivity to erlotinib” value (H3255 cells [2]) of the same compound?
Answer: Its value is “sensitive”.

Question: And the “effect on cell-cycle progression” value (H322 cells [3])?
Answer: Its value is “G1/S phase arrest”.

Question: What does the source list for `C/C=C1\NC(=O)[C@H](Cc2ccccc2)NC(=O)[C@@H](C(C)C)NC(=O)[C@@H]([C@@H](C)CC)NC(=O)[C@H](NC(=O)[C@H](NC(=O)[C@H](CCCN)NC(=O)[C@H]2CCCN2C(=O)[C@H](NC(=O)[C@@H](NC(=O)[C@@H](NC(=O)[C@H](NC(=O)CC[C@@H](C)CC)C(C)C)[C@@H](C)O)C(C)C)C(C)C)[C@@H](C)CC)[C@@H](C)OC(=O)[C@H](C(C)C)NC1=O` [PM02734, (4S)-MeHex-D-Val-L-Thr-L-Val-D-Val-D-Pro-L-Orn-D-allo-Ile-cyclo(D-allo-Thr-D-allo-Ile-D-Val-L-Phe-Z-Dhb-L-Val)]?
Answer: IC50 (H1299 cells): 2000 to 2800 nM; IC50 (A549 cells): 300 to 1250 nM; IC50 (H460 cells): > 5000 nM; IC50 (H322 cells [4]): 300 to 1250 nM; % treated vs. control tumor volume ratio (% T/C) [5]: 74%; IC50 (H358 cells): > 5000 nM; IC50 (H661 cells): 300 to 1250 nM; IC50 (H1650 cells): > 5000 nM; IC50 (H3255 cells [6]): 300 to 1250 nM; IC50 (H1975 cells): 2000 to 2800 nM; apoptotic cells (Sub-G0/G1) (H322 cells [7]): apoptotic cell death in a time-dependent manner; effect on cell-cycle progression (H322 cells [7]): cell cycle arrest at S-phase

Question: What does the source list for Kahalalide F?
Answer: in vitro antitumor activity (colon (HT-29)): micromolar activity; in vitro antitumor activity [8]: micromolar activity; in vitro antitumor activity (mouse leukemia (P388)): micromolar activity
